From patent US20190064177A1, “INCORPORATING COMPETITIVE BINDING INFORMATION INTO MOLECULAR ARRAY ANALYSIS TO GENERATE FUNCTION NETWORKS OF INTERACTIONS” (ARIZONA BOARD OF REGENTS ON BEHALF OF ARIZONA STATE …, priority 2017, published 2019)

Tested on: diaphorase
Assay: fluorescently labeled diaphorase binding to peptide array with or without excess FAD
Conditions: for 1 microM FAD (array fluorescence of bound diaphorase) / 1 micro no FAD (array fluorescence of bound diaphorase): 1 micromolar labeled diaphorase; for 1 microM FAD (array fluorescence of bound diaphorase) / 10 microM FAD (array fluorescence of bound diaphorase): excess FAD present; for 1 microM FAD (array fluorescence of bound diaphorase) / 1 micro no FAD (array fluorescence of bound diaphorase) / 10 microM FAD (array fluorescence of bound diaphorase) / 10 microM no FAD (array fluorescence of bound diaphorase): 65535 is detector saturation; for 10 microM FAD (array fluorescence of bound diaphorase) / 10 microM no FAD (array fluorescence of bound diaphorase): 10 micromolar labeled diaphorase; for 1 microM noFAD/FAD / 10 microM noFAD/FAD: ratio of binding without FAD to binding with FAD; for 1 microM noFAD/FAD / Meas. ratio: 1 micromolar diaphorase; for 10 microM noFAD/FAD: 10 micromolar diaphorase; for Meas. ratio: ratio without/with FAD calculated from measured binding values
Method: Measurements were performed in which diaphorase was bound to an array of about 126,000 unique sequences. The sequences were chosen simply to cover sequence space. 16 of the natural 20 amino acids were used to make up these sequences with C, I, M and T omitted. The diaphorase was fluorescently labeled and each peptide sequence feature was scanned and fluorescence recorded on the array. Diaphorase bound tightly to some peptides and not at all to others. Two different concentrations of diaphorase were used, 1 and 10 micromolar, and the diaphorase was either bound in the presence of excess FAD or not. […] Indeed the Pearson correlation coefficient between w/ and w/o FAD was >0.97, which actually speaks to the reproducibility of this dataset. However, there are some differences as shown on the scatter plot of FIG. 1. When one takes a ratio of the binding without FAD and the binding with FAD, one finds the following top 30 ratios (Table 1): Note that all these sequences end with a GSG linker sequence. Because there are two concentrations, one can easily check for consistency. Note that 65535 is detector saturation, so one has to ignore those values. For this reason, the lower concentration is used most of the time. […] It appears that this was some kind of error and was ignored in subsequent analysis. A similar conclusion can be made with the 7th highest value. Looking at the sequences, RW or at least R or K followed by a nonpolar or aromatic amino acid at the N-terminus. This is interesting as FAD is negatively charged, though the adenine in FAD looks a bit like tryptophan (see FIG. 2).

1 microM FAD (array fluorescence of bound diaphorase)	1 micro no FAD (array fluorescence of bound diaphorase)	10 microM FAD (array fluorescence of bound diaphorase)	10 microM no FAD (array fluorescence of bound diaphorase)	1 microM noFAD/FAD	10 microM noFAD/FAD	Meas. ratio	Sequence
4143.5	2317.75	40264.25	26253	0.5594	0.652	0.56	LLGFLGGSG [array peptide with C-terminal GSG linker]
3433.25	2202	33610.5	25700.5	0.6414	0.7647	0.64	WLDLGVFPYQHLGSG [array peptide with C-terminal GSG linker]
9011	5775	65535	32672.5	0.6409	0.4986	0.64	DLFQLVFSGSG [array peptide with C-terminal GSG linker]
3707.5	34797.5	36814	46161	9.386	1.254	9.39	KPLAVQKVGSG (KPLAVQKVFGSG) [array peptide with C-terminal GSG linker]
3162	8721.5	55433.5	65535	2.758	1.182	2.76	RAQYAQYLFGGSG [array peptide with C-terminal GSG linker]
10415	1802.5	19218.25	19784.75	0.1731	1.029	0.17	YSVDYWYQVDGSG [array peptide with C-terminal GSG linker]
3049	1911.25	34155	15703	0.6268	0.4598	0.63	FGKLYQLYNDGSG [array peptide with C-terminal GSG linker]
2100.75	1225.5	16872.25	8529	0.5834	0.5055	0.58	YSALFGLQEDGSG [array peptide with C-terminal GSG linker]
–	–	–	–	–	–	0.70	GYHLFEKLYFDGS
–	–	–	–	–	–	1.60	YRRFPYFPGGSG [array peptide with C-terminal GSG linker]
5147	733.25	2589.25	2522.5	0.1425	0.9742	0.14	KNRPYNKDLEDGSG [array peptide with C-terminal GSG linker]
–	–	–	–	–	–	2.56	YWRFYANWAQLFG
2460	6757	27275.5	57203.5	2.747	2.097	2.75	RQYQKHSYAKFSGSG [array peptide with C-terminal GSG linker]
–	–	–	–	–	–	2.18	WRPFWKNLGGSG [array peptide with C-terminal GSG linker]
3089	2012.5	22739.5	12627	0.6515	0.5553	0.65	AQVAVDGFYVDGSG [array peptide with C-terminal GSG linker]
–	–	–	–	–	–	0.66	PVDFGYQLKVSGS
–	–	–	–	–	–	0.69	LFDNVLEFVEDGS
–	–	–	–	–	–	2.18	ARWQQYKFGGSG [array peptide with C-terminal GSG linker]
2664.5	1341.5	21517.25	6065.25	0.5035	0.2819	0.50	SVLEGYQAVFGGSG [array peptide with C-terminal GSG linker]
12347.25	2221	17803.5	20355.75	0.1799	1.143	0.18	VKDGNKHYWRVSGSG (VKDGANKHYWRVSGSG) [array peptide with C-terminal GSG linker]
4182.5	2264.25	36729	16544	0.5414	0.4504	0.54	AFYGLELGGSG [array peptide with C-terminal GSG linker]
–	–	–	–	–	–	1.71	RQRYPKVSGGSG [array peptide with C-terminal GSG linker]
2420	1457.5	17702.75	5389.5	0.6023	0.3044	0.60	EAVQKLLFSGSG [array peptide with C-terminal GSG linker]
1435	770.5	3699	2948.5	0.5369	0.7971	0.54	LAKQNRVEDGSS (LAKQNRVEDGSG) [array peptide with C-terminal GSG linker]
1546	4014	18565.25	41333.25	2.596	2.226	2.60	YNRNAKSSGGSG [array peptide with C-terminal GSG linker]
